Key:
NF-kB = assay: NF-κB INHIBITION TEST (NF-kB luciferase reporter, TNFα-stimulated H9c2 cells); assay type: cell-based, Rat
Description: The NF-κB INHIBITION TEST was conducted as follows. Rat cardiac myoblasts H9c2 cells were purchased from ATCC (Manassas, Va.). Cultures were maintained in Dulbecco's modified Eagle's medium (DMEM, Invitrogen Life Technologies, Carlsbad, Calif.) supplemented with 10% fetal bovine serum, 100 units/ml penicillin, and 50 ug/ml streptomycin (Invitrogen life technologies, Carlsbad, Calif.). 1×10^4 cells grown in 96-well plates were transiently transfected with 0.45 ug total DNA per well using Lipofectamine 2000 (Invitrogen life technologies, Carlsbad, Calif.). In all transfections, a construct with the thymidine kinase promoter and the Renilla luciferase reporter gene (pRL-TK, Promega, Madison Wis.) was included as an internal control in addition to the NF-kB luciferase promoter. One day after transfection, cells were treated with the indicated samples (in DMSO as vehicle) at indicated concentrations and stimulated with 100 ng/mL of Tumor Necrosis Factor-α (TNFα, Sigma-Aldrich, St Louis, Mo.) for approximately 24 hours before they were lysed for luciferase assays, using Dual-Luciferase Reporter System from Promega (Madison, Wis.), following manufacturer's protocol. Briefly, the firefly luciferase activity was measured first (representing NF-kB promoter activity), followed by the renilla luciferase (internal control), using luminometer LMAX, from Molecular Devices (Sunnyvale, Calif.). The ratio of these two luciferase activities (RLU) was used to evaluate the activity of each promoter:
NF-κB Inhibition=[1−(RLUsample/RLUcontrol)]*100
where RLUsample and RLUcontrol are the normalized luciferase activity ratios of the sample and control, respectively.
Percent NF-kB Inhibition is also reported.

Collagenase = Collagenase inhibition, EnzCheck assay; assay type: biochemical
Description: Collagenase inhibition was measured using EnzCheck® assay (Molecular Probes, Eugene, Oreg.) according to the manufacturer's instructions. Test materials were evaluated over a wide range of concentrations. Fluorescence was measured after 2-3 hours using a microplate reader set with the wavelength combination 485/530 nm

[1] = 10 ug/mL, TNFα 100 ng/ml stimulated H9c2 cells
[2] = 0.0001% by weight of alkylphenol
[3] = 0.001% by weight of alkylphenol

| Structure (SMILES) | Percent NF-kB Inhibition relative to vehicle (NF-kB; 0.2 ug/ml, vehicle 0.1% DMSO) | Percent NF-kB Inhibition relative to vehicle (NF-kB; 0.5 ug/ml, vehicle 0.1% DMSO) | Percent NF-kB Inhibition relative to vehicle (NF-kB; 1 ug/ml, vehicle 0.1% DMSO) | Percent NF-kB Inhibition relative to vehicle (NF-kB; 2 ug/ml, vehicle 0.1% DMSO) | Percent NF-kB Inhibition relative to vehicle (NF-kB; 4 ug/ml, vehicle 0.1% DMSO) | Percent NF-kB Inhibition relative to vehicle (NF-kB; [1]) | Percent Inhibition of Collagenase (Collagenase; [2]) | Percent Inhibition of Collagenase (Collagenase; [3]) | Percent Inhibition of Collagenase (Collagenase; 0.01% by weight of alkylphenol) | Percent Inhibition of Collagenase (Collagenase; 0.1% by weight of alkylphenol) | Percent Inhibition of Collagenase (Collagenase; 1% by weight of alkylphenol) | Percent NF-kB Inhibition relative to vehicle (NF-kB; 25 ug/mL, TNFα 100 ng/ml stimulated H9c2 cells) |
| --- | --- | --- | --- | --- | --- | --- | --- | --- | --- | --- | --- | --- |
| Oc1ccc(/C=C/c2cc(O)cc(/C=C/c3ccc(O)cc3)c2)cc1 [1-hydroxyl 3,5-bis(4′hydroxylstyryl)benzene] | 0.5% | 22.1% | 51.7% | 71.0% | 96.1% |  |  |  |  |  |  |  |
| CCCCCc1ccc(O)cc1 [4-amylphenol] |  |  |  |  |  | 54.2% | 29.42% | 29.30% | 34.19% | 44.66% | 53.33% |  |
| CCCCc1ccc(O)cc1 [4-butylphenol] |  |  |  |  |  |  | 26.55% | 23.16% | 26.81% | 54.38% | 59.51% |  |
| CCCCCCc1ccc(O)cc1 [4-hexylphenol] |  |  |  |  |  |  | 19.57% | 16.90% | 27.67% | 28.82% | 46.13% |  |
| CCCc1ccc(O)cc1 [4-propylphenol, reference compound] |  |  |  |  |  | (−49.2%) |  |  |  |  |  | (−59.1%) |

Reference: patent US20140005276A1, “COMPOSITIONS COMPRISING SUBSTITUTED PHENOLS AND TOPICAL APPLICATION THEREOF” (priority 2012, published 2014)
